“And” between values parts separate entries of the source, which are not always exact repeats. Equal entries are not always repeated. “Also recorded” adds a separate entry of the source. No end group written: not given here.
How the values were obtained:
EDB fragment of FN = target: T1, EDB fragment of FN (Homo sapiens, UniProt P02751); experiment: Microscale thermophoresis binding affinity; details: MST
T1 construct: The EDB fragment of FN was expressed in E. coli; made in house; host or cells: E. coli
Protocol: The binding affinity of MT218 was determined with microscale thermophoresis (MST) using a Nanotemper Monolith NT.115 instrument (NanoTemper Technologies, Munich, Germany). The EDB fragment of FN was expressed in E. coli, purified, and labeled with amine-reactive dye NT-647. MT218 was dissolved into assay buffer (50 mM PBS w/0.05% Tween-20). This solution was further diluted using assay buffer to give a series of MT218 working solutions. Each MT218 working solution was then mixed with a fixed concentration of fluorescently labeled EDB fragment. The mixtures of MT218 and EDB were then loaded into standard capillaries, and MST measurements were performed at 25°C using 20–80% light-emitting diode power and 40% infrared-laser power at varying concentrations of MT218.

[1] = system: BxPC3-GFP-Luc intrapancreatic tumor xenografts; experiment: MRMI of BxPC3-GFP-Luc intrapancreatic tumor xenografts (3T); type: in vivo, human cells in female nu/nu mice
Protocol: (§1) For flank xenograft models, 4 × 10^6 Capan-1 cells suspended in 100 μL of a 6 mg/mL Matrigel (Corning, Corning, NY) solution was injected subcutaneously into the flank of 8-week-old female nu/nu mice. The tumor bearing mice were imaged after tumor volumes exceeded 300 mm^3. For orthotopic intrapancreatic models, the pancreas of 4-week-old female nu/nu mice were surgically exposed via a ~10 mm incision in the left ventral abdomen and the application of gentle pressure to express the spleen and associated pancreatic tissue. 1 × 10^6 BxPC3-GFP-Luc or PANC-1-GFP-Luc cells suspended in 100 μL of a Matrigel solution (6 mg/mL) was injected into the pancreatic tissue using an insulin syringe with a 31G needle. Any leakage of cell suspension was lavaged with DPBS twice to prevent intraabdominal seeding PaCa cells. The peritoneal fascia was closed with absorbable stitches, and the dermis closed with stainless steel wound clips. Prior to imaging, growth of tumor was verified by bioluminescence imaging with intraperitoneal injection of d-luciferin on IVIS Spectrum system (Perkin Elmer, Waltham, MA).
(§2) Mice bearing intrapancreatic tumors were anesthetized and a tail vein catheter was inserted. Image acquisition was performed on a MR Solutions 3T MRS 3000 scanner with a mouse radiofrequency coil. Axial images were obtained using a Fast Spin Echo (FSE) MRI sequence (305 ms TR, 11 ms TE, 90° FA, 4 cm × 4 cm FOV, 1 mm slice thickness, 10 slices, echo train length = 4, echo spacing = 11 ms, 4 averages, 256 × 256 matrix, 0.0156 × […] cm/pixel resolution) with respiratory gating. Images were acquired before contrast and at different time points after contrast injection at a dose of 0.1 mmol/kg (100 μL). For competitive binding experiments, a 5:1 molar ratio of free ZD2 peptide to MT218 was injected in mice bearing intrapancreatic BxPC3 tumor xenografts (n = 3) at a dose of 0.1 mmol MT218/kg (100 μL). Images obtained on the MR Solutions 3T scanner were normalized using the Surscalereader.exe (MR Solutions, Guildford, UK) program supplied.
(§3) Image files were exported and analyzed in Horus software. ROIs were drawn in the tumor, liver, kidney, and muscle. Muscle ROIs were taken from the muscle, with other structures (liver, kidney, tumor) identified after comparison with published images and comparison with anatomical landmarks or bioluminescent imaging. Pancreatic lesions were localized using the liver, kidney, and spleen as anatomical landmarks. […] Size of ROIs drawn for image analysis are summarized in Supplementary Table 1. The contrast-to-noise ratio of the tumor (CNR) was calculated using the following equation, where σnoise is the standard deviation of intensities from an ROI drawn outside of the mouse body:
(§4) CNR=Mean IntensityTumor-Mean IntensityMuscle/σnoise.
(§5) Image subtraction was performed on images adjusted to the same window and level in FIJI open-source software.
(§6) Image contrast was reported as fold enhancement of contrast to noise ratio of post-contrast images over pre-contrast images using Fold Enhancement = CNRpost/CNRpre. Statistical analysis of CNR was performed in Minitab Express (Minitab Inc., State College, PA). One-way ANOVA with Fisher Individual Tests for Differences of Means post-hoc testing was performed to determine statistical significance between >2 means (p < 0.05). Student's T test was used to determine statistical significance between 2 means (p < 0.05).

[2] = system: PANC-1-GFP-Luc intrapancreatic tumor xenografts; experiment: MRMI of PANC-1-GFP-Luc intrapancreatic tumor xenografts (3T); type: in vivo, human cells in female nu/nu mice
Protocol: as §1, §2, §3, §4, §5, §6

[3] = cited from earlier work
Text: (§7) ZD2 targeted MRI contrast agents have been developed and tested for MRMI of EDB-FN in aggressive breast cancer and prostate cancer models ([15], [16], [20]). The targeted contrast agent ZD2-N3-Gd(HP-DO3A) (MT218) was developed by conjugating ZD2 peptide to a clinical macrocyclic contrast agent Gd(HP-DO3A) ([16], [20]). […] The ...

[4] = system: aggressive breast and prostate cancers; details: cited from earlier work
Text: as §7

[5] = 0.1 mmol/kg, 10 min post-injection, n = 3
[6] = 0.1 mmol/kg, 10 min post-injection, n = 6

Kd (EDB fragment of FN; NT-647-labeled EDB fragment, 50 mM PBS w/0.05% Tween-20, 25°C): 3.2 ± 0.2 µM
Substance: ZD2-N3-Gd(HP-DO3A) (TVRTSAD; also: conjugated via N3 to Gd(HP-DO3A) contrast agent, end not given here) [MT218, small molecular conjugate of ZD2 peptide to a macrocyclic clinical MRI contrast agent Gd(HP-DO3A)]
binding affinity (in words) (EDB fragment of FN; MT218 to EDB-FN): micromolar affinity; also recorded: moderate binding affinity
tumor CNR increase (post/pre) ([1]; 0.1 mmol/kg, 10 min post-injection (maximum for MT218), n = 3): 5.3 fold
tumor contrast enhancement [1, 5]: strong contrast enhancement
tumor enhancement, subtraction images [1, 5]: strong enhancement and clear delineation
tumor contrast enhancement ([1]; 0.1 mmol/kg, 20 min post-injection, n = 3): decreased
tumor contrast enhancement ([1]; 0.1 mmol/kg, 30 min post-injection, n = 3): returned to background levels
MT218 CNR relative to control ([1]; BxPC3-GFP-Luc intrapancreatic, control Gd(HP-DO3A), p < 0.05): 212%
CNR relative to clinical agent ([1]; BxPC3-GFP-Luc intrapancreatic, vs Gd(HP-DO3A), p < 0.05): 2.1 times
CNR increase ([1]; MT218 0.1 mmol/kg co-injected with 5-fold excess free ZD2 peptide, n = 3): approximately 2.5 fold
contrast enhancement, competitive binding experiment ([1]; MT218 0.1 mmol/kg co-injected with 5-fold excess free ZD2 peptide, vs MT218 alone, n = 3): significant reduction of contrast enhancement
CNR with free ZD2 peptide compared with MT218 alone ([1]; MT218 co-injected with 5-fold free ZD2 peptide, n = 3, p < 0.05): significant decrease in tumor CNR; also recorded: significantly lower
size of smallest tumor detected / better visualized ([1]; smallest average size / area of tumor nodules, cf. BxPC3 + MT218 ROI in Supplementary Table 1): 6.1 mm^2 and 6.13 mm^2
intratumoral CNR increase (post/pre) [2, 6]: approximately 3.9 fold
tumor contrast enhancement [2, 6]: substantial contrast enhancement
tumor signal enhancement, subtraction images [2, 6]: substantial signal enhancement
MT218 CNR as percent of Gd(HP-DO3A) control ([2]; PANC-1-GFP-Luc intrapancreatic, control Gd(HP-DO3A), p < 0.05): 164%
CNR relative to clinical agent ([2]; PANC-1-GFP-Luc intrapancreatic, vs Gd(HP-DO3A), p < 0.05): 1.6 times
T1 relaxivity compared with Gd(HP-DO3A), in words [3]: higher T1 relaxivity than Gd(HP-DO3A)
contrast enhancement [4]: superior contrast enhancement

From publication PMC7661967, “Magnetic Resonance Molecular Imaging of Extradomain B Fibronectin Improves Imaging of Pancreatic Cancer Tumor Xenografts” (Frontiers in Oncology, 2020)
